From ChEMBL document CHEMBL5126521, “Analgesic Opioid Ligand Discovery Based on Nonmorphinan Scaffolds Derived from Natural Sources” (J Med Chem, 2022)
pEC50, pIC50, pKi: −log10 of the molar value. Bridge positions count the residues as written; N and C are the ends. Square brackets hold non-standard residues; d marks the D form. Peptide text beside a SMILES is read from it.

Tests used:
[1] = Stability in rat brain homogenate assessed as compound remaining measured after 90 mins relative to control; type: ADME, tissue-based; settings: read-out: Stability
[2] = Stability in mouse serum assessed as half life; type: ADME, cell-free
[3] = Stability in mouse brain homogenate assessed as half life; type: ADME, tissue-based
Mu-type opioid receptor [4] = target: Mu-type opioid receptor (Cavia porcellus, UniProt P97266); assay: Antagonist activity at guinea pig ileum MOP; type: functional, tissue-based
Sequence of Mu-type opioid receptor (Cavia porcellus, UniProt P97266) (P97266 whole entry): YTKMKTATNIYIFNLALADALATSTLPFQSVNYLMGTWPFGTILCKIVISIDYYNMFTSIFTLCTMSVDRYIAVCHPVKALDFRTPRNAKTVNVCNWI

Mus musculus [5] = assay: Antinociceptive activity in mouse administered icv; type: functional
Mu-type opioid receptor [6] = target: T1, Mu-type opioid receptor (Homo sapiens, UniProt P35372); assay: Agonist activity at MOP (unknown origin) stably expressed in HEK293 cells assessed as forskolin stimulated cAMP accumulation incubated for 30 mins by radioactivity based scintillation counter analysis relative to control; type: functional, cell-based; settings: filed as agonist
T1 sequence (P35372 whole entry): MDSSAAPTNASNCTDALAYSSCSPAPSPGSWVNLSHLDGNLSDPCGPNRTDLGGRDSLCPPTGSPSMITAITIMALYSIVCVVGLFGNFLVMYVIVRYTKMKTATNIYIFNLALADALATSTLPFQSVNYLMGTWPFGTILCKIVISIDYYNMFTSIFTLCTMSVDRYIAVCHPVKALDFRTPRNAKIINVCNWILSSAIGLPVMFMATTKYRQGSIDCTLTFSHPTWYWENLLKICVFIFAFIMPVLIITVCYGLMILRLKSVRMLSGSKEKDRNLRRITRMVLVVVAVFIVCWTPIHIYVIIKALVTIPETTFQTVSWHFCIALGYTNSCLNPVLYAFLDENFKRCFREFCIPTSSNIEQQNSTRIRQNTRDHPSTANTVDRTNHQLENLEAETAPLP

[7] = target: T2, Delta-type opioid receptor (Homo sapiens, UniProt P41143); assay: Displacement of [3H]DPDPE from DOP (unknown origin) stably expressed in HEK293 cells by liquid scintillation counter analysis; type: cell-based
T2 sequence (P41143 whole entry): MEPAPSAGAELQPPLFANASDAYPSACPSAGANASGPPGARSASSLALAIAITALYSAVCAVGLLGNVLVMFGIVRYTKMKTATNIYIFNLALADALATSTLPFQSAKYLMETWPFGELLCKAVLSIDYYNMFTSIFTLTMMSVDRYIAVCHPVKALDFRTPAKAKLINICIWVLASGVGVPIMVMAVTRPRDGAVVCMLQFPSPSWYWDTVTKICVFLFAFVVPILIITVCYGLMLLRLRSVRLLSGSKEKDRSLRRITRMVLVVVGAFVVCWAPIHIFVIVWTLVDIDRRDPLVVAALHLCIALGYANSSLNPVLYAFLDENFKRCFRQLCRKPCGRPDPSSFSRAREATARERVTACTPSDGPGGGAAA

Mu-type opioid receptor [8] = target: T1, Mu-type opioid receptor; assay: Displacement of [3H]DAMGO from MOP (unknown origin) stably expressed in HEK293 cells by liquid scintillation counter analysis; type: cell-based
Mu-type opioid receptor [9] = target: T1, Mu-type opioid receptor; assay: Agonist activity at MOP (unknown origin) stably expressed in HEK293 cells assessed as forskolin stimulated cAMP accumulation incubated for 30 mins by radioactivity based scintillation counter analysis; type: functional, cell-based
Rattus norvegicus = assay: Antinociceptive activity in rat administered icv by tail pressure test relative to control; type: functional; design: concentration or dose not given beside the values
Mu-type opioid receptor [10] = target: Mu-type opioid receptor (Mus musculus, UniProt P42866); assay: Antagonist activity at mouse vas deferns MOP; type: functional
Sequence of Mu-type opioid receptor (Mus musculus, UniProt P42866) (P42866 whole entry): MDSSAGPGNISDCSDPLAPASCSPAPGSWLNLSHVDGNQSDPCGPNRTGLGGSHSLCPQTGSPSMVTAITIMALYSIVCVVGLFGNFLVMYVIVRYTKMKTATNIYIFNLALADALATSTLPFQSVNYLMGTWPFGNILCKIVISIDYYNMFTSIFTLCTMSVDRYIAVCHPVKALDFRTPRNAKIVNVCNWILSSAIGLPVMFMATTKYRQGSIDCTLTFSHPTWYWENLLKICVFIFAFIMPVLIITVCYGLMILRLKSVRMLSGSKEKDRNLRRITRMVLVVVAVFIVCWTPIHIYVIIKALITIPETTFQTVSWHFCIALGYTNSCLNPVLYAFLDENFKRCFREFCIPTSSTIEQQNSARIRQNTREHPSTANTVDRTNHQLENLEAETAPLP

Mus musculus [11] = assay: Antinociceptive activity in Swiss albino mouse assessed tail flick response in warm water administered icv; type: functional
[12] = target: Delta-type opioid receptor (Rattus norvegicus, UniProt P33533); assay: Inhibition of Wistar rat brain membrane DOP; type: cell membranes
Sequence of Delta-type opioid receptor (Rattus norvegicus, UniProt P33533) (P33533 whole entry): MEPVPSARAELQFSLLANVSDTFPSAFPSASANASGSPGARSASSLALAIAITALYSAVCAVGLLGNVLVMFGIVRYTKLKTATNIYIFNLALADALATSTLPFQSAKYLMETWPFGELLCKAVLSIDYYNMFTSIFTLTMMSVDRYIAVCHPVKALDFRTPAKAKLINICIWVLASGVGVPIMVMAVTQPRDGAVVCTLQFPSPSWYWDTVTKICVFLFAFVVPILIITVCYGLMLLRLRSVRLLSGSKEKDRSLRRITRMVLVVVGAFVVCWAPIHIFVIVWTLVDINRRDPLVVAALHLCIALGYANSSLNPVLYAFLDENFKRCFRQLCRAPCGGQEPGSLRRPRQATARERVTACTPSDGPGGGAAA

Mu-type opioid receptor [13] = target: T1, Mu-type opioid receptor; assay: Agonist activity at human recombinant MOP expressed in CHO cells by calcium mobilization assay; type: functional, cell-based
Mu-type opioid receptor [14] = target: Mu-type opioid receptor (Rattus norvegicus, UniProt P33535); assay: Inhibition of Wistar rat brain membrane MOP; type: cell membranes
Sequence of Mu-type opioid receptor (Rattus norvegicus, UniProt P33535) (P33535 whole entry): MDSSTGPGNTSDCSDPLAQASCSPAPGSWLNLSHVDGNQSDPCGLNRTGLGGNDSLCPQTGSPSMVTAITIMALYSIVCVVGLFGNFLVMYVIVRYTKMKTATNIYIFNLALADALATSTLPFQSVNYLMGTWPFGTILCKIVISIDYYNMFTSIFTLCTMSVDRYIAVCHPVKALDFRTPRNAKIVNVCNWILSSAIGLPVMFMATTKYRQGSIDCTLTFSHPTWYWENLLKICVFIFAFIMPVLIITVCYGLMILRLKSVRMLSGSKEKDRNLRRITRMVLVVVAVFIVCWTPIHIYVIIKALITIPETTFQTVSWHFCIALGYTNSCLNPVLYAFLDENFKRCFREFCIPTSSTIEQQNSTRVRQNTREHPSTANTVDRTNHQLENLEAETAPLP

Mu-type opioid receptor [15] = target: T1, Mu-type opioid receptor; assay: Binding affinity to MOP (unknown origin)
[16] = target: T2, Delta-type opioid receptor; assay: Binding affinity to DOP (unknown origin)

Cc1cc(O)cc(C)c1C[C@H](N)C(=O)N[C@@H]1CCCCNC(=O)C[C@@H](C(N)=O)NC(=O)[C@H](c2ccccc2)NC(=O)[C@H](c2ccc(C(F)(F)F)cc2)NC1=O
remaining at […] [1]: 93%

Cc1cc(O)cc(C)c1C[C@H](N)C(=O)N[C@@H]1CCCCNC(=O)C[C@@H](C(N)=O)NC(=O)[C@H](c2ccccc2)NC(=O)[C@H](c2ccc(F)cc2)NC1=O
remaining at […] [1]: 93%

C=C(C(=O)O)[C@@H](N)c1ccccc1
half-life [2]: ≥ 5 h
half-life [3]: ≥ 5 h

N=C(N)NCCC[C@@H](NC(=O)[C@@H](N)Cc1ccc(O)cc1)C(=O)N[C@@H](Cc1ccccc1)C(=O)NCC(=O)N[C@@H](Cc1ccc(O)cc1)C(=O)N1CCC[C@H]1C(N)=O
pIC50 (Mu-type opioid receptor [4]): 6.72
ED50 (Mus musculus [5]): 12.5 pmol

C=C(C(N)=O)[C@@H](NC(=O)[C@H](Cc1c[nH]c2ccccc12)NC(=O)[C@@H](C)N(C)C(=O)[C@@H](N)Cc1ccc(O)cc1)c1ccccc1
Emax (Mu-type opioid receptor [6]): 88.3%
pKi [7]: 5.40
pKi (Mu-type opioid receptor [8]): 9.24
pEC50 (Mu-type opioid receptor [9]): 8.64

C=C(C(N)=O)[C@@H](NC(=O)[C@H](Cc1ccccc1)NC(=O)[C@@H](C)N(C)C(=O)[C@@H](N)Cc1c(C)cc(O)cc1C)c1ccco1
Emax (Mu-type opioid receptor [6]): 96.9%
half-life [2]: ≥ 5 h
pKi [7]: 7.33
pKi (Mu-type opioid receptor [8]): 10.85
half-life [3]: ≥ 5 h
pEC50 (Mu-type opioid receptor [9]): 11.70

C[C@@H](NC(=O)[C@@H](N)Cc1ccc(O)cc1)C(=O)N[C@@H](Cc1ccccc1)C(N)=O
Activity (Rattus norvegicus): <0.2%
pIC50 (Mu-type opioid receptor [10]): 5.39
pIC50 (Mu-type opioid receptor [4]): 6.58

Cc1cccc([C@@H]2NC(=O)[C@H](NC(=O)[C@@H](N)Cc3c(C)cc(O)cc3C)CCCCNC(=O)C[C@@H](C(N)=O)NC(=O)[C@H](c3ccccc3)NC2=O)c1
ED50 (Mus musculus [11]): 0.22 µg
pIC50 [12]: 6.94
pEC50 (Mu-type opioid receptor [13]): 8.53
pIC50 (Mu-type opioid receptor [14]): 9.10
remaining at […] [1]: 85%

C[C@@H](NC(=O)[C@@H](N)Cc1ccc(O)cc1)C(=O)N[C@@H](Cc1ccccc1)C(=O)NCC(=O)N[C@@H](Cc1ccc(O)cc1)C(=O)N1CCC[C@H]1C(=O)N[C@@H](CO)C(N)=O [listing 1 of 2 here]
Activity (Rattus norvegicus): <0.05%

NC(=O)[C@@H]1CC(=O)NCCCC[C@@H](NC(=O)[C@@H](N)Cc2ccc(O)cc2)C(=O)N[C@@H](c2ccccc2)C(=O)N[C@@H](c2ccc(F)cc2F)C(=O)N1
remaining at […] [1]: 93%

N=C(N)NCCC[C@@H](NC(=O)[C@@H](N)Cc1ccc(O)cc1)C(=O)N[C@@H](Cc1ccccc1)C(=O)NCC(=O)N[C@@H](Cc1ccc(O)cc1)C(N)=O
pIC50 (Mu-type opioid receptor [4]): 6.80
ED50 (Mus musculus [5]): 20.2 pmol

Cc1ccccc1[C@@H]1NC(=O)[C@H](NC(=O)[C@@H](N)Cc2c(C)cc(O)cc2C)CCCCNC(=O)C[C@@H](C(N)=O)NC(=O)[C@H](c2ccccc2)NC1=O
ED50 (Mus musculus [11]): 0.03 µg
pIC50 [12]: 6.70
pEC50 (Mu-type opioid receptor [13]): 8.25
pIC50 (Mu-type opioid receptor [14]): 8.96
remaining at […] [1]: 85%

Cc1cc(O)cc(C)c1C[C@H](N)C(=O)O
half-life [2]: ≥ 5 h
half-life [3]: ≥ 5 h

Cc1cc(O)cc(C)c1C[C@H](N)C(=O)N[C@@H]1CCCCNC(=O)C[C@@H](C(N)=O)NC(=O)[C@H](c2ccc(F)cc2F)NC(=O)[C@H](c2ccccc2)NC1=O
remaining at […] [1]: 93%

Cc1cccc([C@@H]2NC(=O)[C@H](c3ccccc3)NC(=O)[C@H](NC(=O)[C@@H](N)Cc3c(C)cc(O)cc3C)CCCCNC(=O)C[C@@H](C(N)=O)NC2=O)c1
ED50 (Mus musculus [11]): 0.01 µg
pIC50 [12]: 7.73
pEC50 (Mu-type opioid receptor [13]): 8.96
pIC50 (Mu-type opioid receptor [14]): 10.10
remaining at […] [1]: 85%

Cc1cc(O)cc(C)c1C[C@H](N)C(=O)N[C@@H]1CCCCNC(=O)C[C@@H](C(N)=O)NC(=O)[C@H](c2ccccc2)NC(=O)[C@H](c2ccccc2)NC1=O
ED50 (Mus musculus [11]): 0.02 µg
pIC50 [12]: 6.40
pEC50 (Mu-type opioid receptor [13]): 8.76
pIC50 (Mu-type opioid receptor [14]): 9.59
remaining at […] [1]: 85%

Cc1cc(O)cc(C)c1C[C@H](N)C(=O)N[C@@H]1CCCCNC(=O)C[C@@H](C(N)=O)NC(=O)[C@H](c2ccccc2)NC(=O)[C@H](c2ccc(F)cc2F)NC1=O
remaining at […] [1]: 93%

C[C@@H](NC(=O)[C@@H](N)Cc1ccc(O)cc1)C(=O)N[C@@H](Cc1ccccc1)C(=O)NCC(=O)N[C@@H](Cc1ccc(O)cc1)C(=O)N1CCC[C@H]1C(=O)N[C@@H](CO)C(N)=O [listing 2 of 2 here]
pIC50 (Mu-type opioid receptor [10]): < 4.82
pIC50 (Mu-type opioid receptor [4]): < 5.40

N[C@@H](Cc1ccc(O)cc1)C(=O)N[C@@H]1CCCCNC(=O)[C@H](Cc2ccccc2)NC(=O)[C@H](Cc2c[nH]c3ccccc23)NC1=O (H-Y[dK]WF; lactam 2-C)
pKi (Mu-type opioid receptor [15]): 9.60
pKi [16]: 7.42

Cc1ccc([C@@H]2NC(=O)[C@H](c3ccccc3)NC(=O)[C@H](NC(=O)[C@@H](N)Cc3c(C)cc(O)cc3C)CCCCNC(=O)C[C@@H](C(N)=O)NC2=O)cc1
ED50 (Mus musculus [11]): 0.006 µg
pIC50 [12]: 7.83
pEC50 (Mu-type opioid receptor [13]): 8.11
pIC50 (Mu-type opioid receptor [14]): 10.70
remaining at […] [1]: 85%
